{"source": "patent US20200165608A1", "about": "“INHIBITION OF VASCULAR ENDOTHELIAL CELL-MEDIATED PHAGOCYTIC PROCESSES FOR TREATMENT OF DEMYELINATING CONDITIONS” (FLORIDA STATE UNIVERSITY RESEARCH FOUNDATION, INC., priority 2018, published 2020)", "key": {"myelin-ECs (BMECs)": {"system": "myelin-ECs (BMECs)", "experiment": "Myelin degradation into neutral lipids (Oil Red O staining) in myelin-BMECs after autophagy drug treatment", "type": "cell-based, mouse", "settings": "3-MA 2 mM 48 hr (1 mM elsewhere in the source), chloroquine 10 μM 24 hr, rapamycin 1 μM 24 hr", "experimental": "Oil Red O (ORO) staining. ORO staining was performed to detect intracellular neutral lipid accumulation in injured spinal cords and cultured BMECs. Spinal frozen sections or fixed cells were dehydrated in 100% propylene glycol for 5 min, then stained with 0.5% ORO solution at 60° C. for 8 min. The samples were then processed with 85% propylene glycol for 5 min followed by distilled water rinsing for 3 times. Stained samples were imaged with a confocal laser scanning microscope. Starvation and drug treatments for autophagy assays. BMECs cultured with 5% FBS containing medium were used as negative control for autophagy. The positive control for autophagy induction, BMECs, were starved with Hanks Balanced Salt Solution for 6 hr to induce autophagy. 10 μM chloroquine, an inhibitor of lysosomes, or 1 μM of rapamycin, an inducer of autophagy, was added to BMECs cultures for 24 hr after myelin debris treatment. 2 mM of 3-MA, a PI3K inhibitor of autophagy was cultured with ECs for 48 hr, starting from the last 24 hr treatment of myelin debris to the subsequent 24 hr of medium wash. Cells grown on coverslips were fixed and stained with Oil Red 0 for detection of myelin-derived lipids as above described."}, "BMECs [1]": {"system": "BMECs", "settings": "1 mM 3-MA (48 hr), 10 μM chloroquine (24 hr)", "description": "Propidium iodide (PI) staining assay for cell death analysis. Wild-type BMECs or Atg5 knockout BMECs were cultured with DMEM medium containing 5% FBS in 24-well plate. To test the toxicity of different autophagy-related drugs, BMECs were treated with or without myelin debris and were treated with or without 1 mM 3-MA (48 hr), 10 μM chloroquine (24 hr), or 1 μM rapamycin (24 hr). After reaching 70% confluence, cells were washed with 1×PBS and fixed with 4% PFA. The fixed cells were stained with propidium iodide and Hoechst, followed by imaging and quantification of PI positive nucleus using Nikon Element software."}, "BMECs [2]": {"system": "BMECs", "experiment": "In vitro endothelial-to-mesenchymal transition (endoMT) assays", "type": "cell-based, mouse", "settings": "TGF-β1 10 ng/ml", "experimental": "In vitro endothelial-to-mesenchymal transition (endoMT) assays. 5×10^3 BMECs were seeded in 24-well plate for endoMT induction. As positive control, recombinant TGF-β1 protein ([…]) was added to BMECs for 72 hr to induce in vitro endoMT. Cells were considered spindle-shaped when the diameter at their longest axis to be 1.5-fold greater than the average diameter of untreated cobblestone BMECs. Myelin debris (1 mg/ml) was added to BMECs for 1, 3, 5, 7, and 10 days and culture medium was changed every 3 days, followed by morphological observation of spindle-shape cells. α-SMA staining was used to confirm the mesenchymal transition. Percentage of spindle-shaped cells and percentage of a-SMA^+/CD31^+ were quantified. To examine the role of TGF-β in myelin-induced endoMT, pan TGF-β neutralizing antibody (20 μg/ml) was added to BMECs together with myelin debris for 10 days and re-supplemented every 3 days."}, "[3]": {"settings": "q-PCR, immunostaining and western blot"}}}
{"compound": "Cn1cnc(N)c2ncnc1-2", "note": "[3-MA, 3-methyladenine]", "values": [{"measurement": "myelin degradation into neutral lipids (ORO+ lipids) in myelin-ECs", "setting": "myelin-ECs (BMECs)", "value": "significantly inhibited myelin degradation into neutral lipids"}]}
{"compound": "CCN(CC)CCCC(C)Nc1ccnc2cc(Cl)ccc12", "note": "(stereo not drawn) [chloroquine]", "values": [{"measurement": "myelin degradation into neutral lipids (ORO+ lipids) in myelin-ECs", "setting": "myelin-ECs (BMECs)", "value": "significantly inhibited myelin degradation into neutral lipids"}, {"measurement": "cell toxicity (cell death by PI staining)", "setting": "BMECs [1]", "value": "without causing apparent cell toxicity"}]}
{"compound": "TGF-β1: Recombinant mouse TGF-β1 (#5231), positive control, strong inducer of endoMT", "values": [{"measurement": "BMEC morphology (induction of endoMT)", "setting": "BMECs [2]; 3 days", "value": "elongated and exhibited the same spindle-like morphology as fibroblasts"}, {"measurement": "CD31 expression in BMECs", "setting": "BMECs [2]; [3]", "value": "markedly downregulated CD31 expression"}, {"measurement": "a-SMA expression in BMECs", "setting": "BMECs [2]; [3]", "value": "strongly induced a-SMA expression"}]}
